This assay addresses T1, JAK2 JH1 JH2 (Homo sapiens, UniProt O60674).
T1 construct: JAK2 JH1 JH2; purchased Thermo Fisher Scientific (Life Technologies) SelectScreen
The assay can be described thus: SelectScreen Z'LYTE. The class given is biochemical. In outline:
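Percent values come from Thermo SelectScreen profiling of NU5455, combining activity and binding assays. CSF1R was run in Z'LYTE format at Km app ATP, and CAMK1 in Adapta format with ATP listed at 10.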

Structures are written as SMILES.

T1 sequence (O60674 532-1132 limits assumed): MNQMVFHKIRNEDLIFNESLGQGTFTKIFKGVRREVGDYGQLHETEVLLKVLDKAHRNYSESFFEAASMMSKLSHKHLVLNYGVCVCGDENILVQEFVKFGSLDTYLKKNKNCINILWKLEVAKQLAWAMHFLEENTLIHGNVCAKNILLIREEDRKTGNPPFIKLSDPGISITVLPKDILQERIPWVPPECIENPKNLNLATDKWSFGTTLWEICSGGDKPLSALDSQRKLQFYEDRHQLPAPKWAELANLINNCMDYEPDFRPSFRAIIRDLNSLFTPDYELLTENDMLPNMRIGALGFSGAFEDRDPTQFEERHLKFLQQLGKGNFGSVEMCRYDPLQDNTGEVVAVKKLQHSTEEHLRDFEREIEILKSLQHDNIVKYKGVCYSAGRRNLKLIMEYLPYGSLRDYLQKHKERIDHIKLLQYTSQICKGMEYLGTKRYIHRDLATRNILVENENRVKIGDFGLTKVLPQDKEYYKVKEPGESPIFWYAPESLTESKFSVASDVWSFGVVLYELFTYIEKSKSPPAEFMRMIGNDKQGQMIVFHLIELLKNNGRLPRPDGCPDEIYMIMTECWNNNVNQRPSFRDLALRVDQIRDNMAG

Regarding `CN(C(=O)CN1CCOCC1)c1ccc2sc3c(-c4cccc5c(=O)cc(N6CC7CCC(C6)O7)oc45)cccc3c2c1` [NU5455], the inhibition (as a rule, the relative decrease from the control value, in per cent) at 1 µM was -6.7%.

Values taken from paper PMC6934184, “Selective DNA-PKcs inhibition extends the therapeutic index of localized radiotherapy and chemotherapy” (The Journal of Clinical Investigation, 2019).
